Source: article PMC12117998, “First Steps toward the Design of Peptides that Influence the Intracellular Palmitoylation Machinery” (Chembiochem, 2025)
No end group written: not given here.

Assays:
HeLa cells [1] = test: Cell viability assay (resazurin); assay type: cell-based; conditions: 24 h; for cytotoxicity (cell viability): CF‐labeled peptides, n = 3 (Figure 3A); for concentration up to which peptide is not toxic (cell viability): unlabeled peptides in serum-free medium, untreated control = 100%, n = 3 (Figure 2A)
Protocol: (§1) HeLa (13,000), MDA‐MB‐231 (26,000), HFF‐1 (16,000) cells, mEGFP‐HRas (18,000), and SW480 and SW620 (15,000) were seeded into a 96‐well plate. Cells were treated with suitable peptide concentrations diluted in the corresponding serum‐free culture medium. After 24 h incubation under standard growth conditions, the cells were washed once with PBS. The positive control was treated for 10 min with 70% EtOH. To test the viability, cells were treated with a resazurin solution (In Vitro Toxicology Assay Kit, resazurin based, Sigma) and incubated for a further 1–2 h. The product resorufin was measured at 595 nm (λex = 550 nm) on an infinite M200 plate reader (Tecan) and normalized to the untreated negative control cells.

MDA‐MB‐231 [2] = test: Cell viability assay (resazurin); assay type: cell-based; conditions: MDA‐MB‐231, 24 h, CF‐labeled peptides, n = 3 (Figure 3B)
Protocol: as §1

HFF‐1 cells [3] = test: Cell viability assay (resazurin); assay type: cell-based, human; conditions: HFF‐1, 24 h, CF‐labeled peptides, n = 3 (Figure 3C)
Protocol: as §1

HeLa cells [4] = test: Cellular uptake by flow cytometry; assay type: cell-based; conditions: 30 min, serum-free medium, 37 °C, flow cytometry
Protocol: (§2) HeLa (90,000), MDA‐MB‐231 (120,000), and HFF‐1 (125,000) cells were seeded into a 24‐well plate. Cells were treated with the desired concentration of CF‐labeled peptide diluted in the appropriate serum‐free medium for 30 min at 37 °C and 5% CO2. Afterward, cells were washed once with PBS, detached from the plate using indicator‐free trypsin/EDTA and resuspended in indicator‐free culture medium. The cell mixture was measured on the Guava easyCyte flow cytometer (Merck) using the GRN‐B (520/30) detector.
CMA was synthesized and kindly provided by Azizi et al.^[ [33] ^] Cells were either treated with 20 μM CMA diluted in serum‐free media or 0.1% DMSO diluted in serum‐free media for 6 h at 37 °C with 5% CO2. Next, cells were washed once with serum‐free medium and 5 μM CF‐labeled peptides diluted in serum‐free medium were incubated for 30 min. Control cells were only treated with dimethylsulfoxide (DMSO) or 20 μM CMA.
For the preincubation assay, cells were either treated with 5 μM DC‐2 diluted in serum‐free medium or only serum‐free medium for 30 min at 37 °C and 5% CO2. Afterward, cells were washed once with serum‐free medium and treated with 5 μM CF‐labeled DC‐2 for 30 min at 37 °C and 5% CO2.
To block cell surface thiols, cells were incubated with either serum‐free medium or 1.2 mM 5,5′‐dithiobis‐(2‐nitrobenzoic acid) (Ellman's reagent, DTNB) diluted in serum‐free medium for 5 min. Next, untreated cells were treated with 1 μM of CF‐labeled DC‐2 or DC‐2dis diluted in serum‐free medium and DTNB‐pretreated cells with 1 μM of CF‐labeled DC‐2 or DC‐2dis and 1.2 mM DTNB in serum‐free medium for 30 min at 37 °C and 5% CO2 as described by Aubry et al.^[ [47] ^]

human 6His‐ZDHHC7 = target: T1, human 6His‐ZDHHC7 (Homo sapiens, UniProt Q9NXF8); test: In vitro palmitoylation assay (LC‐MS); assay type: biochemical; conditions: 50 μM CF‐labeled peptide, 37 °C, LC‐MS (Figure 4); for palmitoylation in presence of ZDHHC7: 100 nM ZDHHC7, 100 μM palmitoyl‐CoA, pH 7.0, 2 h; for palmitoylation in absence of ZDHHC7 (auto‐palmitoylation): 100 μM palmitoyl‐CoA, no ZDHHC7, pH 7.0, 2 h
T1 construct: 6His; purchased Proteintech
T1 sequence (Q9NXF8 1-308): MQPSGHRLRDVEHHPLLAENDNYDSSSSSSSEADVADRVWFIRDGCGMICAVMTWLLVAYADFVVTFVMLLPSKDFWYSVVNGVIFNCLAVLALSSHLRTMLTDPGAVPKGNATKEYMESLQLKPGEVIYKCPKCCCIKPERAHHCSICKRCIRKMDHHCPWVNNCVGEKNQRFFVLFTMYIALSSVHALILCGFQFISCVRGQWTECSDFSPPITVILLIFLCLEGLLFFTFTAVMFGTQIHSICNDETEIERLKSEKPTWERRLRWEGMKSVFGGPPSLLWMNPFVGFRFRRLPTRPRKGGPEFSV
Protocol: The 50 μM CF‐labeled peptides were incubated with 100 nM human 6His‐ZDHHC7 (Proteintech) and 100 μM palmitoyl‐CoA (Santa Cruz Biotechnology) in reaction buffer (50 mM HEPES, 150 mM NaCl, 1 mM EDTA, 1 mM (tris(2‐carboxyethyl)phosphine) (TCEP), 0.3 mM DDM, pH 7.0) for 2 h at 37 °C. Control reactions without ZDHHC7 or palm‐CoA were incubated with the appropriate volume of reaction buffer. Afterward, the reaction was centrifuged for 5 min at 13000 rpm. The precipitate was dissolved in DMSO/ACN (3:2, v/v). To enrich the peptide from the supernatant, C8 ZipTips were used. All samples were analyzed on the LC MS‐8060 triple quadrupole ESI‐MS (Shimadzu). The fluorescence intensity (λex = 493 nm, λem = 517 nm) of the samples was measured on an EC 160/2 NUCLEODUR 300‐5 C18 ec column using linear gradients from 20% to 70 % ACN in ddH2O + 0.1% FA over 7 min.

MCF‐10 A breast spheroid = test: Confocal time‐lapse imaging of spheroids; assay type: cell-based, human; conditions: 10‐day‐old MCF‐10 A spheroids, 10 μM CF‐labeled peptide, imaged every 45 s for 20 min, n ≥ 2 (Figure 7)
Protocol: Spheroids from single MCF10‐A cells were generated for 10 days as described in ref. [66]. For further analyses, spheroids were isolated from EHS matrix through incubation in 2 mL ice‐cold cell recovery solution (BD Biosciences) for 30 min (4 °C). Next, spheroids were washed with fresh EGF‐free medium and individually picked under a stereo microscope for seeding onto 35 mm cell culture dishes with microscopic glass bottoms (Cover Slip, 24 × 24 mm, #1.5 HP, Menzel‐Gläser). Spheroids adhered to glass substrates for 15 min (RT) and were subsequently covered with 0.9 mL fresh EGF‐free growth medium.
Live‐cell imaging was performed at 37 °C and 5% CO2 (cell incubator XL, Zeiss, Germany) with an inverse confocal laser scanning microscope (LSM880 with Airyscan detector) that used a 40x LD C‐Apochromat water immersion objective (NA 1.1, Zeiss). Before addition of peptides, control images were taken. Subsequently, peptide was added to a final concentration of 10 μM and spheroids immediately imaged every 45 s for 20 min. The observed plane was at the equatorial plane of a spheroid, where the diameter was largest. Images were taken with Fast Airyscan and subsequent processing using the ZEN 2.3 black software (Zeiss). Z‐stacks were taken right after the time series in 1 μm steps with the same microscopic settings.

HeLa cells [5] = test: Live‐cell fluorescence imaging of peptide uptake; assay type: cell-based; conditions: 30 min, 5 μM CF‐labeled peptides, confocal laser scanning microscopy (Figure 3G)
Protocol: HeLa (40,000), MDA‐MB‐231 (30,000), or HFF1 (55,000) cells were seeded into an 8‐well ibidi. Cells were treated for 30 min with 5 μM of CF‐labeled peptide diluted in the appropriate serum‐free media. The cell nuclei were stained with the Hoechst 33342 nuclear dye for the last 10 min of the total incubation time. Afterward, cells were washed three to four times using serum‐free medium and finally, medium containing FBS was added for the microscopy. Live fluorescence microscopy analyses were performed on the LSM 980 with Airyscan 2 Inverse Confocal Laser Scanning Microscope (Carl Zeiss) on a 63X Plan‐Apochromat oil objective (NA 1.4, Zeiss) at 37 °C and 5% CO2 or on the BZ‐X810 (Keyence) using a 60X Plan‐Apochromat oil objective (NA 1.4, Keyence). Images were cropped and processed using Fiji.
Hela cells (15,000) were seeded into a 96-well plate. Cells were treated with suitable peptide concentrations diluted in the corresponding serum-free culture medium. After 1 h peptide incubation under standard growth conditions, the positive control was either directly treated with lysis solution or the supernatant was exchanged for serum-free culture medium and the plate was incubated for further 5 h under growing conditions. The CytoTox-ONE™ Reagent was added and incubated at RT for 10 minutes. Finally, the Stop Solution was added and the fluorescence was measured at 595 nm (λex = 550 nm) on an infinite M200 plate reader (Tecan) and normalized to the positive control cells.
Red blood cells (RBCs) were washed three times in PBS by centrifug ing at 4 °C and 3,000 x g for 5 min and diluted to 5% in PBS. The desired peptide concentrations diluted in PBS were added into a 96-well plate. Next, 5% RBCs in PBS were added into the wells and incubated for 24 h at 37 °C and 5% CO2. As a positive control, RBCs were mixed with 10% Triton X-100 in PBS. […] Lastly, the absorption (λ=560 nm) was measured on the infinite M200 plate reader (Tecan). For the evaluation, the measured absorption of the Triton-X-100 treatment was set to a hemolysis rate […]

MDA‐MB‐231 [6] = test: Cellular uptake by flow cytometry; assay type: cell-based; conditions: MDA‐MB‐231, 30 min, 5 μM CF‐labeled peptides, serum-free medium, 37 °C, n ≥ 3 (Figure 3E)
Protocol: as §2

HFF‐1 cells [7] = test: Cellular uptake by flow cytometry; assay type: cell-based, human; conditions: HFF‐1, 30 min, 5 μM CF‐labeled peptides, serum-free medium, 37 °C, n ≥ 3 (Figure 3F)
Protocol: as §2

[8] = 5 μM CF‐labeled peptides, n ≥ 3 (Figure 3D, 5C)
[9] = 10 μM CF‐labeled peptides, n = 3 (Figure 2B)

Substance	cytotoxicity (cell viability) (HeLa cells [1])	concentration up to which peptide is not toxic (cell viability) (HeLa cells [1])	cytotoxicity (cell viability) (MDA‐MB‐231 [2])	cytotoxicity (cell viability) (HFF‐1 cells [3])	cellular uptake (in words) (HeLa cells [4]; [8])	cellular uptake (in words) (HeLa cells [4]; [9])	palmitoylation in presence of ZDHHC7 (human 6His‐ZDHHC7)	palmitoylation in absence of ZDHHC7 (auto‐palmitoylation) (human 6His‐ZDHHC7)	infiltration of basement membrane (BM)‐covered spheroids (MCF‐10 A breast spheroid)	intracellular uptake pattern (HeLa cells [5])	cellular uptake (in words) (MDA‐MB‐231 [6])	cellular uptake (in words) (HFF‐1 cells [7])
GLRKRLRKFRNK-NH2 [sC18*, cell‐penetrating peptide (CPP) sC18*, origin CAP18, control peptide, reference compound]	not toxic	> 100 µM	not toxic	not toxic	–	–	–	–	–	–	–	–
GLRKRLRKFRNKEFDHHCPW-NH2 [DC‐4, CPP sC18* fused to the DHHC motif derived from ZDHHC5]	–	–	–	–	overall weaker uptake	internalized to less extent	only a minor peak of palmitoylated DC‐4	no auto‐palmitoylation	–	–	–	–
GLRKRLRKFRNKKMDHHAPW-NH2 [DA‐1, control peptide in which the cysteine of the DHHC motif of DC‐2 was exchanged by an alanine]	not toxic	> 100 µM	not toxic	not toxic	–	–	–	–	did not further enter cells of the spheroid	–	–	–
GLRKRLRKFRNKRMDHHCPW-NH2 [DC‐11, CPP sC18* fused to the DHHC motif derived from ZDHHC21]	–	–	–	–	internalized to a higher extent compared to DC‐4	highest uptake	palmitoylated	auto‐palmitoylation	–	diffuse cytosolic pattern	internalized to a higher extent compared to DC‐4	internalized to a higher extent compared to DC‐4
